Measured values from article PMC9718561, “Multi-functional chitosan copolymer modified nanocrystals as oral andrographolide delivery systems for enhanced bioavailability and anti-inflammatory efficacy” (Drug Delivery, 2022).
In brackets after ≈: the same amount, converted by molar mass. Where two headings read alike, the source gives them in different places. Values belong to the molecule of their own block, whether it stands above or below them.

Tests used:
[1] = Saturated solubility study (shaking 24 h, HPLC); format: physicochemical; details: read-out: Saturation solubility
Description: Briefly, excess formulation powders were added into 5 mL buffers, and shaked at 37 °C for 24 h, then the undissolved drug was removed by centrifuging at 13, 000 rpm for 10 min and filtering with 0.22 μm microporous membrane. The drug concentration in the filtrate was determined by HPLC. The freshly prepared ANs, SANs, TANs and S-C-TANs were directly shaking for 24 h at 37 °C, and treated as that of andrographolide, thereafter. ADR was analyzed at 225 nm and at 35 °C using HPLC linked to Ultimate^Ⓡ XB-C18 (4.6 mm × 250 mm, 5 μm) column. The mobile phase which consisted of methanol and water (60:40, v/v) was pumped at 1 mL/min. The HPLC analysis met the methodological requirements by validating.

MDCK cells = assay: Cytotoxicity of nanocrystals; format: cell-based; details: drug concentration above 100 μg/mL
[2] = Oil-water partition coefficient (Log P); format: physicochemical
Excerpt: Combining the saturated solubility and log P of each group (shown in Table S1, it could be seen that the greater the saturated solubility is, the greater the log P value is.

[3] = Pharmacokinetic study after gavage; format: in vivo; details: SD rats, 50 mg/kg by gavage
Description: We explored oral absorption enhancing ability of andrographolide nanocrystals by operating pharmacokinetic studies on SD rat. In brief, twenty-five SD rats were randomly divided into 5 groups, and administrated ADR-water (dispersed ADR in water), ANs, SANs, TANs and S-C-TANs at 50 mg/kg by gavage (Chen et al., [2014]). After administrated for 0.083, 0.25, 0.5, 0.75, 1, 2, 4, 6, 8, 12 and 24 h, about 0.3 mL blood sample was collected by retro-orbital puncture. The plasma was centrifuged at 4,000 r/min for 10 min at 4 °C and stored at −20 °C. The andrographolide concentrations in plasma samples were detected after treatments as following: 50 μL plasma samples, 25 μL luteolin solution (internal standard 10.11 μg/mL) and 200 μL methanol solution were mixed by vortexing for 5 min. The mixed solution was subsequently centrifuged at 12,000 rpm for 10 min and the supernatant was collected and dried at room temperature under a stream of nitrogen. The residue was reconstituted with 50 μL methanol and mixed by vortexing for 3 min. after centrifuging at 12,000 rpm for 10 min, the supernatant was injected into the HPLC system for analysis. The ADR concentration in plasma samples was detected by HPLC following the conditions shown in supplementary materials, and pharmacokinetic parameters were calculated using the DAS 3.3.0 pharmacokinetics program (developed by the Clinical Trial Center of Shanghai University of Traditional Chinese Medicine, Shanghai, China).
Andrographolide was analyzed at 225 nm using HPLC linked to a Ultimate^Ⓡ XB-C18 (4.6 mm ×250 mm, 5μm) column. The mobile phase, consisting of methanol and 0.2% phosphoric acid (46:54, v/v), was pumped at 1 mL/min. The column temperature was 35℃.

[4] = system: ear swelling ICR mice model; assay: Arachidonic acid ear swelling model, ear swelling rate; format: in vivo; details: indomethacin 10 mg/kg po; ADR injection 10 mg/kg iv; ADR 100 mg/kg po; S-C-TANs L 25, M 50, H 100 mg/kg po
Description: To explore whether the enhancing on bioavailability could result in enhanced therapeutic effect, we studied the anti-inflammatory efficacy of nanocrystal. The ear swelling ICR mice model was established by using arachidonic acid and the anti-inflammatory efficacy was evaluated by employing ear swelling rate of ICR mice serum levels of TNF-α, IL-6 and IL-1β, as pharmacodynamic index. In this study, fifty-six ICR mice were randomly divided into 8 groups, named control group (normal animal), model group (without drug), indomethacin group (positive drug, 10 mg/kg, po), ADR injection group (10 mg/kg, iv), ADR group (100 mg/kg, po), L-S-C-TANs group (low dose of S-C-TANs, 25 mg/kg, po), M-S-C-TANs group (middle dose of S-C-TANs, 50 mg/kg, po) and H-S-C-TANs group (high dose of S-C-TANs, 100 mg/kg, po). […] Cellular inflammatory factors, like TNF-α, IL-1β, and IL-6, were measured by Elisa Kit.
To explore whether the enhancing on bioavailability could result in enhanced therapeutic effect, we studied the anti-inflammatory efficacy of nanocrystal. The ear swelling ICR mice model was established by using arachidonic acid and the anti-inflammatory efficacy was evaluated by employing ear swelling rate of ICR mice serum levels of TNF-α, IL-6 and IL-1β, as pharmacodynamic index. […]

[5] = Real-time distribution in the gastrointestinal tract (fluorescent labelling, live imaging); format: in vivo; details: SD rats, oral
Description: We performed real-time distribution study to explore whether the functional materials have played their full enhancing ability in oral absorption. We used acridine orange to label SDS, fluorescein isothiocyanate isomer I to label TPGS, CS, SDS-TPGS and SDS-CS-TPGS, and rhodamine B to label ADR, respectively. […] The SDS-CS-TPGS + ADR group was administered with SDS-CS-TPGS and ADR at the same time. The animals were killed by cervical dislocation at the pre-set time points of 0.5 h, 1 h, 2 h and 3 h. Then the gastrointestinal tract was removed in time and put it into a small animal live imaging system (Lumina XR, PerkinElmer, America) for photographic observation.
The distribution of gastrointestinal segments in each group of animals at each time period was observed by in live imaging system (Figure 5A). […] In order to further understand the distribution of various materials and ADR in the gastrointestinal tract, we divided the gastrointestinal tract of SD rats into ten parts such as stomach, small intestine which divided into 8 sections on average and colon, as shown in Figure 5(B). […] For example, when SDS-CS-TPGS were taken orally with ADR, the time of 50% SDS-CS-TPGS passing part 4, part 5 and part 6 of small intestine was 0.67 ± 0.01 h, 0.98 ± 0.06 h and 1.04 ± 0.13 h, respectively, which were not much different from that of ADR, as the passing time of ADR in part 4, part 5 and part 6 was 0.65 ± 0.04 h, 1.02 ± 0.01 h and 1.03 ± 0.01 h, respectively. However, these times of other materials and ADR were different, indicating the materials and ADR could not reach the same site of gastrointestinal tract at the same time, which may limit the absorption enhancing ability of functional materials. Combining the results described above, we can conclude that materials in physical mixture may separate in intestinal, and synthesized copolymer could reduce the separation and has better ability to […] the absorption site of drug at the same time.
The passing times of 50% ADR and polymer materials passed through the fourth (T4(50)), fifth (T5(50)) and sixth (T6(50)) segments of small intestine of SD rats were shown in Table S2, and we can find the distribution of ADR and copolymer (S-C-T) were similar.

[6] = SDS-CS-TPGS and ADR administered at the same time

solubility at 24 h ([1]; citrate - disodium hydrogen phosphate buffer, 37 °C, pH 4, aqueous buffer, thermodynamic from solid, pH4.0 (C-DHPB)): 37.68 ± 0.24 µg/mL (≈ 108 µM)
solubility at 24 h ([1]; hydrochloric acid aqueous solution, 37 °C, pH 1.2, simulated gastric fluid, thermodynamic from solid, pH1.2 (HCl)): 38.2 ± 0.95 µg/mL (≈ 109 µM)
solubility at 24 h ([1]; phosphate buffered saline, 37 °C, pH 6.8, aqueous buffer, thermodynamic from solid, pH6.8 (PBS)): 32.5 ± 0.42 µg/mL (≈ 92.8 µM)
solubility at 24 h ([1]; purified water, 37℃): 40.8 ± 0.64 µg/mL (≈ 116 µM)
logP ([2]; Water, 25℃): 1.78 ± 0.02
logP ([2]; Water, 37℃): 1.76 ± 0.01
logP ([2]; pH 1.2, pH1.2, 25℃): 1.85 ± 0.02
logP ([2]; pH 1.2, pH1.2, 37℃): 1.84 ± 0.02
logP ([2]; pH 4, pH4.0, 25℃): 1.85 ± 0.02
logP ([2]; pH 4, pH4.0, 37℃): 1.87 ± 0.02
logP ([2]; pH 6.8, pH6.8, 25℃): 1.88 ± 0.02
logP ([2]; pH 6.8, pH6.8, 37℃): 1.94 ± 0.02
Fr (relative bioavailability) ([3]; compared with ADR-Water): 100%
bioavailability ([3]; rat, plasma, po, read-out: Fa (absolute bioavailability)): 1.83%
AUC(0-inf) ([3]; rat, po, plasma): 1290 ng·h/mL
AUC(0-t) ([3]; rat, po, plasma): 1290 ± 218 ng·h/mL
Cmax ([3]; rat, po, plasma): 229 ± 82 ng/mL
Tmax ([3]; rat, po, plasma): 0.717 ± 0.415 h
half-life ([3]; rat, po, plasma): 2.81 ± 0.232 h
CL/F ([3]; rat, po, plasma, read-out: CLz/F (converted)): 661 mL/min/kg
MRT last ([3]; rat, po, plasma, read-out: MRT0-t): 5.66 ± 1.26 h
MRT inf ([3]; rat, po, plasma, read-out: MRT0-∞): 5.75 ± 1.26 h
Vd/F ([3]; rat, po, plasma, read-out: Vz/F): 161 ± 31.4 L/kg
T4(50), time of 50% passing the fourth segment of small intestine [5, 6]: 0.65 ± 0.04 h
T5(50), time of 50% passing the fifth segment of small intestine [5, 6]: 1.02 ± 0.01 h
T6(50), time of 50% passing the sixth segment of small intestine [5, 6]: 1.03 ± 0.01 h
T4(50), time of 50% passing the fourth segment of small intestine ([5]; given alone): 0.65 ± 0.02 h
T5(50), time of 50% passing the fifth segment of small intestine ([5]; given alone): 1.16 ± 0.10 h
T6(50), time of 50% passing the sixth segment of small intestine ([5]; given alone): 2.08 ± 0.05 h
SMILES: C=C1CC[C@@H]2[C@](C)(CO)[C@H](O)CC[C@@]2(C)[C@@H]1C/C=C1/C(=O)OC[C@H]1O [ADR, andrographolide]
cytotoxicity (MDCK cells): toxicity of ADR emerged
anti-ear swelling efficacy, order of all groups [4]: ADR injection group > H-S-C-TANs group > positive drug group > M-S-C-TANs group > ADR group ≈ L-S-C-TANs group

SMILES: CCCCCCCCCCCCOS(=O)(=O)[O-].[Na+] [SDS, Sodium dodecyl sulfate]
T4(50), time of 50% passing the fourth segment of small intestine ([5]; given alone): 0.89 ± 0.03 h
T5(50), time of 50% passing the fifth segment of small intestine ([5]; given alone): 1.52 ± 0.12 h
T6(50), time of 50% passing the sixth segment of small intestine ([5]; given alone): 2.40 ± 0.02 h

SMILES: COc1ccc2c(c1)c(CC(=O)O)c(C)n2C(=O)c1ccc(Cl)cc1 [indomethacin, Indomethacin]
anti-ear swelling efficacy, order of all groups [4]: ADR injection group > H-S-C-TANs group > positive drug group > M-S-C-TANs group > ADR group ≈ L-S-C-TANs group
